Results taken from patent US20040213755A1, “Compositions and methods for reducing odor” (priority 2000, published 2004).

How the values were obtained:
[1] = GC headspace analysis of odor emitting compound; conditions: 500 μL of 0.82% solution in water; % of control; 0% = complete removal
Description: (§1) The first odor reducing composition of the invention was 89% L-aspartic acid, 1% ZnO, and 10% Smellrite® zeolite (Invention #1). The second odor reducing composition of the invention was 88% L-aspartic acid, 2% ZnO, and 10% Smellrite® zeolite (Invention #2). The odor emitting compounds were tested neat, and triethylamine (0.1%), dimethylsulfide (0.1%), and isovaleric acid (0.82%) were also tested as solutions in water.
(§2) In the tests using the water solutions of the odor emitting compounds, 500 μL of the solutions were used for all samples.
(§3) Samples were prepared using 20 mL serum bottles with septum caps, and gas tight syringes were used to sample the headspace in the serum bottles. The sample was weighed into the serum bottle, the odor emitting compounds were added, and the sample bottles capped. The sample and the odor emitting compound in the serum bottle was mixed in each case. The serum bottle was then allowed to stand for 30 minutes and a 100 μL sample was taken from headspace of the serum bottle using a gas tight syringe and then injected into a gas chromatograph (GC) for analysis.
(§4) The GC analysis was performed using a H—P 5890-11 GC with a FID detector and a Split/Splitless injector, and a H—P 3396 integrator. The column used was a capillary H—P Ultra-2 (50 m×0.32 mm×0.52 μm). The GC conditions used were: injector temperature=300° C., detector temperature=330° C., oven temperature program=70° C. initial hold for 4 min., raise temperature 7° C./min. to 235° C., hold at 235° C. for 4 min. with total run length of 31.6 min. The split was turned off at injection and turned on after 30 seconds.
(§5) Complete removal of odor is represented as 0% and the control is 100%.

[2] = GC headspace analysis of odor emitting compound; conditions: 500 μL of 0.1% solution in water; % of control; 0% = complete removal
Description: as §1, §2, §3, §4, §5

[3] = GC headspace analysis of odor emitting compound; conditions: 500 μL of 0.1% solution in water; % of control; 0% = complete removal; remark: listed apart in the source
Description: as §1, §2, §3, §4, §5

Compound	% Odor, Isovaleric acid (0.82% in water) [1] [%]	% Odor, Dimethylsulfide (0.1% in water) [2] [%]	% Odor, Triethylamine (0.1% in water) [3] [%]
O=C([O-])O.[Na+] [Baking soda, sodium bicarbonate]	8.7	93.6	19.
N[C@@H](CC(=O)O)C(=O)O [L-aspartic acid]	13.9	82.2	0
[O]=[Zn] [Zinc oxide, zinc oxide]	0	96.4	79.3
